Assay results: paper PMC4159583, “Evaluation of the Interaction between Phosphohistidine Analogues and Phosphotyrosine Binding Domains” (Chembiochem, 2014)
Like-named read-outs stand apart in the source and are kept apart here. One block for each molecule: values may come before it. *1 amine or outer side, *2 acyl side, *3 side chain or, on linkers, in order; H or OH if unused. Where a SMILES comes first, the peptide text is derived from it. [ ]: non-standard residue; d: D form. The star is where a group is joined. X2 = O=C(O)c1cc(NC(=S)*)ccc1-c1c2ccc(=O)cc-2oc2cc(O)ccc12; X1 = O=C([C@H](Cn1cc(P(=O)(O)O)nn1)N[*:1])[*:2]; pY = N[C@@H](Cc1ccc(OP(=O)(O)O)cc1)C(=O)O; phTz = not defined here; GABA = NCCCC(=O)O

Tests used:
[1] = pKa determination by 31P NMR pH titration; format: physicochemical
Procedure: NMR data were collected using a Bruker DPX300 and analysed using MestReNova software. Experiments were carried out 121 MHz using peptide S1 or S2 at a concentration of 10 mM in 10% D2O in H2O (v/v, 2 mL) with an external standard of tris-carboxyethyl phosphine (TCEP) in H2O with a δ value set at 16.30 ppm.5 The pH of the solution was measured and adjusted by addition of 100 mM NaOH in 10% D2O in H2O (v/v) in portions of 5 µL. At higher pH values significant signal-broadening was observed, which precluded accurate determination of chemical shifts and such results were not included in calculations to determine pKa’s. The pKa was determined by fitting the observed chemical shift data to a Boltzmann distribution yielding pKas of ~5.8 for pTyr and 5.95 for the phosphotriazole analogue.
Equation )/(1 + exp((x-x0)
)/(1 + exp((x-x0) Chi-Sqr
Reduced Chi-S 0.00117 Value Standard Error
Figure S10. pH titrations of peptides S1 and S2 containing phosphotyrosine (S1, left) and phosphonotriazole (S2, right) 5Determined by a preliminary experiment using TCEP with an external standard of phosphoric acid (with a shift assigned as 0.00 ppm).
(also on this page, place not known: DPX3 00 software . usin g D 2O H 2O ppm. ad justed H 2O ( v/v) 5 signal-broa dening includ ed 31 P Chemical /ppm 0.01607 0.4 31 P Chemical shift /ppm shift)

[2] = target: Grb2 SH2 domain; details: cited from earlier work
Description: We envisaged producing suitable peptides by Fmoc-SPPS and investigating the interaction with proteins known to bind to phosphotyrosine. Our initial test system was the prototypical SH2 phosphotyrosine binding domain from Grb2.[19] […] A)15% SDS-PAGE: Lane 1 - MW markers, 2 & 3 –flow through Ni-NTA column of soluble fraction, 4 & 5 – elution of soluble fraction from Ni-NTA column, 6 – MW markers, 7 – insoluble fraction. B) 15% SDS-PAGE: Lane 1 - MW markers, 2 - insoluble fraction ...

[3] = target: T1, His6-(Grb2-SH2) (Homo sapiens, UniProt P62993); experiment: Competition fluorescence anisotropy/polarisation assay (displacement of 17); format: binding; details: for competition / displacement of 17: 200 nM 17 and 175 nM Grb2-SH2, serial dilutions of peptide, pH 7.4
T1 construct: His6-(Grb2-SH2), 13132 Da; made in house
Procedure: (§1) Fluorescence polarization experiments
(§2) Peptides were prepared as described above. Fluorescence polarization assays were carried out in 96 well plates (160 µL per well). All experiments were performed in 50 mM Tris.HCl, 100 mM NaCl pH 7.4 (ITC buffer). 2.5-fold or 3-fold dilution series of each peptide were routinely prepared before mixing in the plate well before data acquisition using a Perkin Elmer EnVision™ 2103 MultiLabel plate reader
(§3) Determination of binding of FITC-pY peptide 17 to Grb2-SH2 domain
(§4) Grb2-SH2 was serially diluted through ITC buffer containing 100 nM peptide 17 in triplicate and the fluorescence measured in parallel and perpendicular channels. The instrumental G factor for each experiment was approximated by assuming the anisotropy r = 0 for the free peptide. For each data point the total intensity I and anisotropy r were then determined by application of equations 3 and 4 below. Data were fit using a logistic model to obtain limiting maximum and minimum values […]
(§5) upon binding of the protein and the fraction bound was therefore calculated using equation 5 where λ = Ibound/Ifree. The fraction […]
(§6) IT = Iparallel+ 2GI perpendicular (3) r = Iparallel− GI perpendicular (4)
(§7) F = r − rmin where R = Ibound (5) […]
Competition binding assay […]
fitting using a logistic model to obtain an IC50 value.

[4] = target: T2, full-length Grb2 purified as a glutathione S-transferase (GST) fusion (GST-Grb2) (Homo sapiens, UniProt P62993); experiment: ITC of peptides into full-length GST-Grb2; format: binding
T2 construct: made in house; host or cells: E. coli BL21-Gold (DE3)
Description: Protein expression and purification
Isothermal Titration Calorimetry (ITC)

[5] = target: T3, monomeric His6-(Grb2-SH2), Grb2 SH2 domain (Homo sapiens, UniProt P62993); experiment: ITC of peptides into monomeric His6-(Grb2-SH2) (late-eluting SEC peak 2); format: binding; details: for ITC outcome, standard conditions: final ratio of ligand to protein 2:1
T3 construct: His6-(Grb2-SH2), 13132 Da; made in house
T3 sequence (P62993 with tags, fused parts or gaps): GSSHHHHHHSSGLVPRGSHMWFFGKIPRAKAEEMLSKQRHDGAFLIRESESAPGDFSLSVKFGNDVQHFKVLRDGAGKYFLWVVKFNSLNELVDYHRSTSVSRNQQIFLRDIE
Description: (3 pictures or pasted objects on this page, not shown here)
(5 pictures or pasted objects on this page, not shown here)

[6] = target: T1, His6-(Grb2-SH2); experiment: Fluorescence anisotropy direct binding of FITC-pY peptide 17; details: 100 nM peptide 17, Grb2-SH2 serially diluted, triplicate; 50 mM Tris.HCl, 100 mM NaCl pH 7.4; fraction bound corrected for quenching; read-out: binding constant (Kd) by fluorescence anisotropy
Procedure: as §1, §2, §3, §4, §5, §6, §7
Competition binding assay
Grb2-SH2. […]

[7] = system: Grb2 SH2 domain; experiment: Literature affinities for Grb2-SH2; format: binding; details: cited tripeptide Kd compared with own Kd of 11

Molecule: C[C@H](NC(=O)CNC(=O)[C@H](C)NC(=O)CNC(=O)[C@H](Cc1ccc(OP(=O)(O)O)cc1)NC(=O)CNC(=O)[C@H](C)NC(=O)CNC(=O)[C@H](C)NC(=O)CNC(=O)[C@@H](N)CS)C(=O)NCC(=O)O [S1, H-Cys-Gly-Ala-Gly-Ala-Gly pTyr-Gly-Ala-Gly-Ala-Gly-OH] (H-CGAGAG[pY]GAGAG-OH)
pKa ([1]; 31P NMR 121 MHz, peptide 10 mM in 10% D2O in H2O, titrated with 100 mM NaOH, Boltzmann fit of chemical shift): ~ 5.8

Molecule: N[C@@H](Cc1ccc(OP(=O)(O)O)cc1)C(=O)O [compound 4, phosphotyrosine]
pKa ([1]; NMR titrations (of peptides containing the residue), phosphoryl group): 5.8

Molecule: CC(=O)N[C@@H](CO)C(=O)N[C@@H](Cc1ccc(OP(=O)(O)O)cc1)C(=O)N[C@H](C(=O)N[C@@H](CC(N)=O)C(=O)N[C@H](C(=O)N[C@@H](CCC(N)=O)C(N)=O)C(C)C)C(C)C [compound 11, AcHN-Ser-pTyr-Val-Asn-Val-Gln-NH2, reference compound] (Ac-S[pY]VNVQ-NH2)
Kd ([2]; literature value for Shc-derived hexapeptide, read-out: Kd for Grb2 SH2 domain): 200 nM
IC50 [3]: 442 ± 80 nM
competition / displacement of 17 [3]: Binding (displacement of 17) was observed
Kd [4]: 196 ± 21 nM

Molecule: CC(=O)N[C@@H](CO)C(=O)N[C@@H](Cn1cc(P(=O)(O)O)nn1)C(=O)N[C@H](C(=O)N[C@@H](CC(N)=O)C(=O)N[C@H](C(=O)N[C@@H](CCC(N)=O)C(N)=O)C(C)C)C(C)C [compound 16, AcHN-Ser-pTz-Val-Asn-Val-Gln-NH2] (Ac-S[X1]VNVQ-NH2)
ITC outcome, standard conditions [5]: inconclusive
competition / displacement of 17 [3]: Binding (displacement of 17) was observed

Molecule: CC(C)[C@H](NC(=O)[C@H](CC(N)=O)NC(=O)[C@@H](NC(=O)[C@H](Cc1ccc(OP(=O)(O)O)cc1)NC(=O)[C@H](CO)NC(=O)CCCNC(=S)Nc1ccc(-c2c3ccc(=O)cc-3oc3cc(O)ccc23)c(C(=O)O)c1)C(C)C)C(=O)N[C@@H](CCC(N)=O)C(N)=O [compound 17, FITC-Gaba-Ser-pTyr-Val-Asn-Val-Gln-NH2] ({X2-GABA}-S[pY]VNVQ-NH2)
Kd [6]: 283 ± 18 nM

Molecule: AcHN-Ser-His-Val-Asn-Val-Gln-NH2 [compound 19]
competition / displacement of 17 [3]: No competition

Molecule: AcHN-Ser-Tyr-Val-Asn-Val-Gln-NH2 [compound 18]
competition / displacement of 17 [3]: No competition

Molecule: AcHN-Ser-pSer-Val-Asn-Val-Gln-NH2 [compound 20]
competition / displacement of 17 [3]: No competition

Molecule: AcHN-Ser-pThr-Val-Asn-Val-Gln-NH2 [compound 21]
competition / displacement of 17 [3]: No competition

ITC binding outcome, low c-value ([5]; low c-value conditions, final ratio of ligand to protein 8:1, indistinguishable from titration into buffer): no binding
ITC outcome, standard conditions [5]: inconclusive
competition / displacement of 17 [3]: No competition
ITC titration outcome ([4]; ITC, peptide titrated into GST-Grb2, 25 °C, ITC buffer pH 7.4): inconclusive
Molecule: AcHN-Ser-phTz-Val-Asn-Val-Gln-NH2 ({Ac-Ser-phTz}-VNVQ-NH2; reading uncertain; also: printed as AcHN-Ser-phTz-Val-Asn-Val-Gln-NH2) [compound 15]

Molecule: AcHN-pTyr-Val-Asn-NH2 [literature control tripeptide for Grb2-SH2]
fold lower affinity for monomeric Grb2-SH2 than hexapeptide 11 [7]: ~ 5 fold
Kd ([2]; literature control tripeptide, main article, read-out: Kd for monomeric Grb2-SH2): 1600 nM

pKa [1]: 5.95
Molecule: H-Cys-Gly-Ala-Gly-Ala-Gly pTz-Gly-Ala-Gly-Ala-Gly-OH [S2]
